Source: patent US20250109504A1, “HETEROCYCLIC NON-TRIAZOLE COMPOUNDS AND METHODS FOR INHIBITING CORROSION IN INDUSTRIAL WATER TREATMENT” (CHEMTREAT, INC., priority 2023, published 2025)
Values belong to the molecule of their own block, whether it stands above or below them.

How the values were obtained:
[1] = Solubility in sodium hydroxide (NaOH); type: physicochemical; settings: solubilized in sodium hydroxide (NaOH)
Source text: Moreover, conventional treatment methods involve solubilizing corrosion inhibitors in sodium hydroxide (NaOH). Solubility of benzimidazoles and polymeric acids such as 4,5-imidazoledicarboxylic acid in NaOH is low, i.e., less than 2%. […] These and other issues are addressed by the present disclosure.

[2] = LPR corrosion test of copper coupons in synthetic water with free chlorine (Gamry corrosion cell); settings: for deterioration in corrosion resistance when free chlorine is added: FAC 1 ppm after 1 hr
Method: Several classes of compounds at various concentrations were tested to determine their potential to inhibit corrosion of copper alloy in aqueous systems as shown in Table 1 below.
1 liter samples of synthetic water were each dosed with 5 ppm of a different glucamide compound (A, B, C, D) according to Formula (I) above and 50 ppm of a standard scale inhibitor. Another 1 liter sample of synthetic water was dosed with 4 ppm of tolyltriazole and 50 ppm of the standard scale inhibitor product.
The apparatus used for the corrosion testing was a Gamry Multiport Corrosion Cell and Gamry Reference 600+ potentiostat with multiplexor. Copper coupons (CDA110) were added to the sample cells, and the cells were heated to 50° C. and maintained at this temperature throughout the testing. The cells were continuously stirred at a speed of 350 rpm. A cylindrical working electrode was submerged into the test solutions, and an LPR sweep (linear polarization resistance) was performed every hour for 18 hours. After the one hour mark, 1 ppm of free chlorine was dosed into the corrosion cell.

- Solubility in NaOH [1]: less than 2%
Molecule: O=C(O)c1nc[nH]c1C(=O)O [4,5-imidazoledicarboxylic acid]

Molecule: Imidazole dicarboxylate [IMDCC]
- corrosion inhibition properties (corrosion rates, FIG. 1) as compared to the triazole inhibitors ([2]; Example 1, IMDCC 5, 2.5, 1 ppm vs HST 0.5/0.25/0.1 ppm and TTA 0.5 ppm, CDA110, 50° C., entire 18 hour period): superior corrosion inhibition properties
- deterioration in corrosion resistance when free chlorine is added ([2]; Example 1, IMDCC 5, 2.5, 1 ppm, CDA110, 50° C.): do not exhibit any substantial deterioration
- corrosion inhibition properties (corrosion rates, FIG. 2) as compared to the triazole inhibitors ([2]; Example 2, IMDCC 1 ppm, CT1 + IMDCC 100 ppm + 1 ppm vs HST 0.5 ppm, CDA110, 50° C., entire 18 hour period): superior corrosion inhibition properties
- deterioration in corrosion resistance when free chlorine is added ([2]; Example 2, IMDCC 1 ppm, CT1 + IMDCC 100 ppm + 1 ppm, unlike the CT1 inhibitor): do not exhibit any substantial deterioration
- corrosion inhibition properties (corrosion rates, FIG. 3) as compared to the triazole inhibitors ([2]; Example 3, IMDCC 2.0, 1 ppm, HST + IMDCC 0.10+0.90 to 0.90+0.10 ppm vs HST 1/0.5/0.25 ppm, CDA110, 50° C., entire 18 hour period): superior corrosion inhibition properties
- deterioration in corrosion resistance when free chlorine is added ([2]; Example 3, IMDCC 2.0, 1 ppm, HST + IMDCC 0.10+0.90 to 0.90+0.10 ppm): do not exhibit any substantial deterioration
- corrosion inhibition properties (corrosion rates, FIG. 4) as compared to the triazole inhibitors ([2]; Example 4, IMDCC 2.0, 1 ppm, CT2 + IMDCC 50 ppm + 1 ppm, 25 ppm + 2 ppm, CDA110, 50° C., entire 18 hour period): superior corrosion inhibition properties
- deterioration in corrosion resistance when free chlorine is added ([2]; Example 4, IMDCC 2.0, 1 ppm, CT2 + IMDCC 50 ppm + 1 ppm, 25 ppm + 2 ppm, unlike the CT2 inhibitor): do not exhibit any substantial deterioration
